This is an account of results in PubChem BioAssay AID1259407 (Chemical Carcinogenesis Research Information System (CCRIS), 2018).

For the data set, the system named is CCRIS mutagenicity, Ames/micronucleus/aberration tests. In words: CCRIS mutagenicity studies.

The structures appear in SMILES notation. Calls of active or inactive are those of the source. How the calls were made is not given here.

Regarding `O=Cc1ccco1`, the mutagenic call is “inactive; negative” (Test System: AMES SALMONELLA TYPHIMURIUM, Strain/Indicator: TA97, Metabolic Activation: NONE, Method: PREINCUBATION); “inactive; negative” (Test System: AMES SALMONELLA TYPHIMURIUM, Strain/Indicator: TA97, Metabolic Activation: RAT, LIVER, S-9, AROCLOR 1254, Method: PREINCUBATION); “inactive; negative” (Test System: AMES SALMONELLA TYPHIMURIUM, Strain/Indicator: TA98, Metabolic Activation: HAMSTER, LIVER, S-9, AROCLOR 1254 (10%), Method: PREINCUBATION); “inactive; negative” (Test System: AMES SALMONELLA TYPHIMURIUM, Strain/Indicator: TA98, Metabolic Activation: HAMSTER, LIVER, S-9, AROCLOR 1254, Method: PREINCUBATION); “inactive; negative” (Test System: AMES SALMONELLA TYPHIMURIUM, Strain/Indicator: TA98, Metabolic Activation: NONE, Method: STANDARD PLATE); “inactive; negative” (Test System: AMES SALMONELLA TYPHIMURIUM, Strain/Indicator: TA98, Metabolic Activation: RAT LIVER S-9, PHENOBARBITAL AND BETA-NAPHTHOFLAVONE, Method: PREINCUBATION). Besides, the mutagenic call was “inactive; negative” (Test System: AMES SALMONELLA TYPHIMURIUM, Strain/Indicator: TA98, Metabolic Activation: RAT, LIVER, S-9, AROCLOR 1254 (10%), Method: PREINCUBATION); “inactive; negative” (Test System: AMES SALMONELLA TYPHIMURIUM, Strain/Indicator: TA98, Metabolic Activation: RAT, LIVER, S-9, AROCLOR 1254, Method: PREINCUBATION); “inactive; negative” (Test System: AMES SALMONELLA TYPHIMURIUM, Strain/Indicator: TA98, Metabolic Activation: S-9, Method: STANDARD PLATE); “inactive; negative” (Test System: AMES SALMONELLA TYPHIMURIUM, Strain/Indicator: TA100, Metabolic Activation: HAMSTER, LIVER, S-9, AROCLOR 1254 (10%), Method: PREINCUBATION); “inactive; negative” (Test System: AMES SALMONELLA TYPHIMURIUM, Strain/Indicator: TA100, Metabolic Activation: HAMSTER, LIVER, S-9, AROCLOR 1254, Method: PREINCUBATION); “inactive; negative” (Test System: AMES SALMONELLA TYPHIMURIUM, Strain/Indicator: TA100, Metabolic Activation: NONE, Method: STANDARD PLATE). Besides, the mutagenic call is “inactive; negative” (Test System: AMES SALMONELLA TYPHIMURIUM, Strain/Indicator: TA100, Metabolic Activation: RAT LIVER S-9, AROCLOR 1254, Method: PREINCUBATION); “inactive; negative” (Test System: AMES SALMONELLA TYPHIMURIUM, Strain/Indicator: TA100, Metabolic Activation: RAT LIVER S-9, PHENOBARBITAL AND BETA-NAPHTHOFLAVONE, Method: PREINCUBATION); “inactive; negative” (Test System: AMES SALMONELLA TYPHIMURIUM, Strain/Indicator: TA100, Metabolic Activation: RAT, LIVER, S-9, AROCLOR 1254 (10%), Method: PREINCUBATION); “inactive; negative” (Test System: AMES SALMONELLA TYPHIMURIUM, Strain/Indicator: TA100, Metabolic Activation: RAT, LIVER, S-9, AROCLOR 1254, Method: PREINCUBATION); “active; positive” (Test System: AMES SALMONELLA TYPHIMURIUM, Strain/Indicator: TA100, Metabolic Activation: RAT, LIVER, S-9, AROCLOR 1254, Method: STANDARD PLATE); “inactive; negative” (Test System: AMES SALMONELLA TYPHIMURIUM, Strain/Indicator: TA102, Metabolic Activation: MOUSE LIVER S-9, AROCLOR 1254, Method: PREINCUBATION). Also, the mutagenic call was “inactive; negative” (Test System: AMES SALMONELLA TYPHIMURIUM, Strain/Indicator: TA102, Metabolic Activation: NONE, Method: PREINCUBATION); “inactive; negative” (Test System: AMES SALMONELLA TYPHIMURIUM, Strain/Indicator: TA102, Metabolic Activation: RAT, LIVER, S-9, AROCLOR 1254, Method: PREINCUBATION); “inactive; negative” (Test System: AMES SALMONELLA TYPHIMURIUM, Strain/Indicator: TA104, Metabolic Activation: MOUSE LIVER S-9, AROCLOR 1254, Method: PREINCUBATION); “inactive; negative” (Test System: AMES SALMONELLA TYPHIMURIUM, Strain/Indicator: TA1535, Metabolic Activation: HAMSTER, LIVER, S-9, AROCLOR 1254 (10%), Method: PREINCUBATION); “inactive; negative” (Test System: AMES SALMONELLA TYPHIMURIUM, Strain/Indicator: TA1535, Metabolic Activation: HAMSTER, LIVER, S-9, AROCLOR 1254, Method: PREINCUBATION); “inactive; negative” (Test System: AMES SALMONELLA TYPHIMURIUM, Strain/Indicator: TA1535, Metabolic Activation: NONE, Method: PREINCUBATION). The mutagenic call (Test System: AMES SALMONELLA TYPHIMURIUM, Strain/Indicator: TA1535, Metabolic Activation: RAT LIVER S-9, PHENOBARBITAL AND BETA-NAPHTHOFLAVONE, Method: PREINCUBATION) was “inactive; negative”; the mutagenic call (Test System: AMES SALMONELLA TYPHIMURIUM, Strain/Indicator: TA1535, Metabolic Activation: RAT, LIVER, S-9, AROCLOR 1254 (10%), Method: PREINCUBATION) is “inactive; negative”; the mutagenic call (Test System: AMES SALMONELLA TYPHIMURIUM, Strain/Indicator: TA1535, Metabolic Activation: RAT, LIVER, S-9, AROCLOR 1254, Method: PREINCUBATION) is “inactive; negative”; the mutagenic call (Test System: AMES SALMONELLA TYPHIMURIUM, Strain/Indicator: TA1537, Metabolic Activation: HAMSTER, LIVER, S-9, AROCLOR 1254 (10%), Method: PREINCUBATION) was “inactive; negative”; the mutagenic call (Test System: AMES SALMONELLA TYPHIMURIUM, Strain/Indicator: TA1537, Metabolic Activation: HAMSTER, LIVER, S-9, AROCLOR 1254, Method: PREINCUBATION) is “inactive; negative”; the mutagenic call (Test System: AMES SALMONELLA TYPHIMURIUM, Strain/Indicator: TA1537, Metabolic Activation: NONE, Method: PREINCUBATION) is “inactive; negative”. Further, the mutagenic call reads like this: (Test System: AMES SALMONELLA TYPHIMURIUM, Strain/Indicator: TA1537, Metabolic Activation: RAT LIVER S-9, PHENOBARBITAL AND BETA-NAPHTHOFLAVONE, Method: PREINCUBATION) “inactive; negative”; (Test System: AMES SALMONELLA TYPHIMURIUM, Strain/Indicator: TA1537, Metabolic Activation: RAT, LIVER, S-9, AROCLOR 1254 (10%), Method: PREINCUBATION) “inactive; negative”; (Test System: AMES SALMONELLA TYPHIMURIUM, Strain/Indicator: TA1537, Metabolic Activation: RAT, LIVER, S-9, AROCLOR 1254, Method: PREINCUBATION) “inactive; negative”; (Test System: E.COLI, Strain/Indicator: WP2UVRA, Metabolic Activation: NONE, Method: PREINCUBATION) “inactive; negative”; (Test System: E.COLI, Strain/Indicator: WP2UVRA, Metabolic Activation: RAT LIVER S-9, PHENOBARBITAL AND BETA-NAPHTHOFLAVONE, Method: PREINCUBATION) “inactive; negative”; (Test System: MOUSE LYMPHOMA, Strain/Indicator: L5178Y (TK+/TK-), Metabolic Activation: NONE, Method: SUSPENSION/PLATE) “active; positive”.

Regarding `Cc1ccc2cccnc2c1`, the mutagenic call was “active; positive” (Test System: AMES SALMONELLA TYPHIMURIUM, Strain/Indicator: TA98, Metabolic Activation: HAMSTER, LIVER, S-9, AROCLOR 1254 (30%), Method: PREINCUBATION); “inactive; negative” (Test System: AMES SALMONELLA TYPHIMURIUM, Strain/Indicator: TA98, Metabolic Activation: NONE, Method: PREINCUBATION); “inactive; negative” (Test System: AMES SALMONELLA TYPHIMURIUM, Strain/Indicator: TA98, Metabolic Activation: RAT, LIVER, S-9, AROCLOR 1254 (30%), Method: PREINCUBATION); “active; positive” (Test System: AMES SALMONELLA TYPHIMURIUM, Strain/Indicator: TA100, Metabolic Activation: HAMSTER, LIVER, S-9, AROCLOR 1254 (30%), Method: PREINCUBATION); “inactive; negative” (Test System: AMES SALMONELLA TYPHIMURIUM, Strain/Indicator: TA100, Metabolic Activation: NONE, Method: PREINCUBATION); “active; positive” (Test System: AMES SALMONELLA TYPHIMURIUM, Strain/Indicator: TA100, Metabolic Activation: RAT, LIVER, S-9, AROCLOR 1254 (30%), Method: PREINCUBATION). Also, the mutagenic call is “active; positive” (Test System: AMES SALMONELLA TYPHIMURIUM, Strain/Indicator: TA100, Metabolic Activation: RAT, LIVER, S-9, PHENOBARBITAL AND 5,6-BENZOFLAVONE, Method: PREINCUBATION); “active; positive” (Test System: AMES SALMONELLA TYPHIMURIUM, Strain/Indicator: TA100, Metabolic Activation: RAT, LIVER, S-9, PHENOBARBITAL AND 5,6-NAPHTHOFLAVONE, Method: PREINCUBATION); “active; positive” (Test System: AMES SALMONELLA TYPHIMURIUM, Strain/Indicator: TA100, Metabolic Activation: RAT, LIVER, S-9, Method: PREINCUBATION).
